# Assay results as given in patent US8790640B1, “Treating inflammation with a binding system” (LiveLeaf, Inc., priority 2011, dated 2014).
# Assay: Hydrogen peroxide retention of extracts after desiccation and rehydration (colorimetric strips)
# Assay type: physicochemical
# Details: dissolved in 35% hydrogen peroxide, heated at 80° C., rehydrated
# Description: In order to compare the samples provided above, a test series was prepared in 30 ml tubes containing from 1 g˜10 g of the above extracts of Chinese Gall, Green Tea, Pomegranate and Resveratrol. Each was dissolved in 20 ml of 35% hydrogen peroxide then separate to two aliquots. One part was heated at 80° C. to a dark viscous semi-liquid and allowed to desiccate to a final volume of 5 ml. Each was rehydrated and serially diluted to detection range.
smiles,measurement,value
"Oc1ccc(C=Cc2cc(O)cc(O)c2)cc1 [resveratrol, Resveratrol]",peroxide retention capability,relatively less ability to form stable perhydrates
